# Data as given in article PMC12382614, “(Oxidopyridyl)Porphyrins of Different Lipophilicity: Photophysical Properties, ROS Production and Phototoxicity on Melanoma Cells Under CoCl2-Induced Hypoxia” (Antioxidants, 2025).
# Read-outs that look alike come from different tables or passages of the source.
# Tests used:
# MeWo cells = test: Intracellular localisation by fluorescence microscopy with DIOC6(3); type: cell-based, human; conditions: 5 µM in medium, 6 h
# Description: In the localisation tests, the cells were incubated with porphyrins and DIO6(3), a marker for mitochondria and endoplasmic reticulum (ER), which was used to investigate the colocalisation of porphyrins with the mentioned organelles. All images were analysed using the ImageJ program, while Pearson’s correlation coefficient was calculated using the CellSense program, fluorescence microscope software produced by Olympus.
# To determine any potential preference for the ER and mitochondria, the localisation of (oxidopyridyl)porphyrins substituted with an alkyl chain of 9, 13 and 17 C atoms was observed by fluorescence microscopy incubation with 3,3′-dihexyloxacarbocyanine iodide (DIOC6(3)), a marker that is commonly used to target vesicle membranes, mitochondria and ER [39].
# HDF = test: Photocytotoxicity, MTT assay; type: cell-based, human; conditions: for IC50: Homo sapiens, HDF, light or radiation study, 6 h incubation, red light 643 nm 30 min
smiles,measurement,setting,value
"CCCCCCCCCCCCCCCCCC(=O)Nc1ccc(-c2c3nc(c(-c4ccc[n+]([O-])c4)c4ccc([nH]4)c(-c4ccc[n+]([O-])c4)c4nc(c(-c5ccc[n+]([O-])c5)c5ccc2[nH]5)C=C4)C=C3)cc1 [TOPyP3-C17H35, 5-(4-Octadecanamidophenyl)-10,15,20-tris(1-oxido-3-pyridyl)porphyrin]","solubility (porphyrin not internalised, aggregates outside the cells)",MeWo cells,low solubility
same,reduction in the proliferation of cells,"HDF; 1 µM, irradiation 643 nm, normoxia",~ 40%
same,IC50,"HDF; 3.6 J/cm^2, 100 μM CoCl2 at least 2 h before porphyrin, read-out: IC50 HDF CoCl2",1090 ± 290 nM
same,IC50,"HDF; 3.6 J/cm^2, normoxia, read-out: IC50 HDF No CoCl2",1310 ± 570 nM
